Experimental data taken from article PMC6502747, “Preclinical toxicology and safety pharmacology of the first-in-class GADD45β/MKK7 inhibitor and clinical candidate, DTP3” (Toxicology Reports, 2019).
pIC50: −log10 of the molar value. Like-named read-outs stand apart in the source and are kept apart here.

What was measured:
[1] = rat plasma
Procedure: Pooled plasma and faeces samples were prepared for metabolite profiling and
identification by sequential extraction with acetonitrile. Pooled urine samples were
centrifuged to remove particulate material. For each sample, metabolite profiles
were generated using radio-HPLC. On-line radio-detection was used for urine and
faeces, whereas off-line radio-detection was used for plasma, due to the low
radioactivity levels present in plasma samples. Selected samples were further
analysed by high resolution LC-MS(/MS) in order to characterise the most notable
Results were expressed as the mean of the indicated number of samples. The
statistical error was calculated as either standard deviation (SD) or standard error of
the mean (SEM), as indicated, according to the typology of the experiments.

[2] = system: Sigma receptors (non-selective); test: Sigma receptor functional assay (agonistic/antagonistic effect); assay type: biochemical
From the text: SUPPLEMENTARY FIGURE LEGENDS
Supplementary Figure 1 – Related to Figure 1. […]
Values represent the mean
percentage of variation of the response to the reference Sigma-receptor ligand in the
in the absence of any other agents. […]

CYP2C8 = CYP2C8 (Homo sapiens, UniProt P10632); settings: read-out: CYP2C8 IC50
From the text: investigated in vitro, using time-dependent inhibition and catalytic induction assays
conducted at Cyprotex laboratories in accordance with in-house SOP

HepG2 cells = test: multi-parametric cytotoxicity assay (HCS); assay type: cell-based, human
Procedure: assessment/genetic-toxicology/regulatory-assays.html). Briefly, the numbers of revertant colonies for each of five histidine-requiring strains of Salmonella […]
different classes of genetically active compounds, were evaluated either in the presence or absence of metabolic activation by Aroclor 1254-induced rat liver post-mitochondrial S9 fraction (Supplementary Figure 2B). DTP3 was tested at the […]
expressed as the mean fold increase in colony number for each tester strain upon exposure to DTP3 or strain-specific control compounds (CTR) relative to exposure to vehicle control, either in the presence or absence of metabolic activation (Supplementary Figure 2C). The following significance thresholds were applied to each strain: ≥1.5 folds, strain TA102; ≥2-fold, strains TA98 and TA100; ≥3-fold, […]
(http://www.cyprotex.com/toxicology/multiparametric/cytotoxicity-screening-panel), using High Content Screening (HCS). […]
were treated with a specific dye or antibody, as required by the assay. Plates were then scanned using an ArrayScan VTI automated fluorescence cell imager (Thermo Scientific Cellomics) and analysed for the following measures of toxicity: nuclear size and nuclear morphology, cell membrane permeability, mitochondrial mass, mitochondrial membrane potential (DYm), and cytochrome c release (Figure 2). […]
each compound, cytotoxicity was scored by assessing the minimum effective concentration (MEC) inducing a significant effect relative to vehicle control. […]
and positive controls, respectively. Briefly, upon formation of a stable Gigaohm (GΩ) seal between patch electrodes and individual hERG-expressing HEK-293 cells, hERG-dependent outward tail currents were measured following depolarisation of the cell membrane to […] for 2 s (activation of channels) from a holding potential of - 80 mV, and following subsequent repolarisation to -40 mV, for 3 s. […]
. Electrophysiological measurements were recorded using PatchMaster software (Version v2x73_2). […] The amount of current block was calculated as the percentage of control current. […]

Sequence of CYP2C8 (P10632 whole entry): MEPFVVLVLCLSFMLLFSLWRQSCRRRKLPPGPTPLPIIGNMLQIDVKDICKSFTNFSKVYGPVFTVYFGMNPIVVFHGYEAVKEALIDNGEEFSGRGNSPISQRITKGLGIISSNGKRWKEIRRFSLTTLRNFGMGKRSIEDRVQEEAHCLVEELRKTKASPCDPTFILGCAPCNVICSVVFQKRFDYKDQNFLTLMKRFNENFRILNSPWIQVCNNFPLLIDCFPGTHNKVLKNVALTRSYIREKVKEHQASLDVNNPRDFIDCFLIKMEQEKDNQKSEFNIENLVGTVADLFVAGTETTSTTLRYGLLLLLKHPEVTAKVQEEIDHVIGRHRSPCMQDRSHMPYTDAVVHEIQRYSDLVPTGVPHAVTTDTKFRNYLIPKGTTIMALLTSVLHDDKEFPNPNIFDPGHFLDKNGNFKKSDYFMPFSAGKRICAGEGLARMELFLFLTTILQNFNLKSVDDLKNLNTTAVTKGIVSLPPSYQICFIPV

**Q.** Which results are given for methoxy-DTP3 [P7 (methoxy DTP3)]?
**A.** radio-labelled species in plasma profile ([1]; 10 m): 0.8; radio-labelled species in plasma profile ([1]; 1 hr): 0.8

**Q.** With (+) SKF-10,047 as the compound, how does the “Agonistic Effect, Response” value [2] read?
**A.** 48 % of ligand binding

**Q.** What about the “Agonistic Effect, Response” value ([2]; [Drug] 1.0E-0.5 M) of the same compound?
**A.** 17 % of ligand binding

**Q.** With `Cc1ccc(C)c(OCCCC(C)(C)C(=O)O[C@@H]2O[C@H](C(=O)O)[C@@H](O)[C@H](O)[C@H]2O)c1` [gemfibrozilglucuronide] as the compound, how does the pIC50 (CYP2C8; 0 min) read?
**A.** 4.51

**Q.** And the pIC50 (CYP2C8; 30 min, + NADPH)?
**A.** 5.23

**Q.** And the pIC50 (CYP2C8; 30 min, - NADPH)?
**A.** 4.52

**Q.** What does the source list for `CN(C)CCCN1c2ccccc2Sc2ccc(Cl)cc21` [Chlorpromazine, chlorpromazine]?
**A.** MEC Cell membrane permeability (HepG2 cells): 1.12 µM; MEC Cytochrome C release (HepG2 cells; human, 72 h): 1.30 µM; MEC Mitochondrial membrane potential (HepG2 cells; human, 72 h): 4.70 µM

**Q.** For `C[C@@H]1CN(CCCn2c3ccccc3c3ccccc32)C[C@H](C)N1` [Rimcazole, rimcazole], which “Antagonistic Effect, Response” value ([2]; [Drug] 1.0E-0.5 M) is on record?
**A.** -6 % of ligand binding

**Q.** What about the “Antagonistic Effect, Response” value ([2]; [Drug] 1.0E-0.6 M) of the same compound?
**A.** 84 % of ligand binding

**Q.** And the “Antagonistic Effect, Response” value ([2]; [Drug] 3.0E-0.6 M)?
**A.** 49 % of ligand binding
